Assays:
[1] = target: T1, α4β1 integrin (Jurkat cell adhesion to immobilized CS-1 derived peptide CLHPGEILDVPST) (Homo sapiens, UniProt P05556+P13612); assay: Jurkat-CS-1 assay; format: cell-based; settings: Jurkat cells on CS-1 peptide coated plates; read-out: JK/CS-1 (Jurkat CS-1 Assay IC50 value range)
T1 construct: 100 μl of Jurkat cells (2.5×10^6 cells/ml) in DMEM plus BSA; host or cells: Jurkat T-cell line
Description: The CS-1 derived peptide, CLHPGEILDVPST, and the scrambled control peptide, CLHGPIELVSDPT, were synthesized on a Beckman 990 synthesizer using t-Boc methodology. The peptides were immobilized onto microtiter plates using the heterobifunctional crosslinker 3-(2-pyridyldithio)propionic acid N-hydroxysuccinimide ester (SPDP) as reported by Pierschbacher et al., Proc. Natl. Acad. USA, 80:1224-1227 (1983). Microtiter plates were coated with 20 μg/ml HSA for 2 hr. at room temperature, washed once with PBS and derivatized with 10 μg/ml SPDP for 1 hr. After washing, 100 μl of a 100 μg/ml cysteine containing peptide solution which had been recently dissolved was added to the wells and allowed to crosslink to the plates overnight at 4° C. Unbound peptide was removed from plates by washing with PBS. To block non-reacted sites, the plates are coated with 100 μl of a 2.5 mg/ml BSA solution in PBS for 1 hr. at 37° C. 100 μl of Jurkat cells (2.5×10^6 cells/ml) in DMEM plus BSA (2.5 mg/ml) was mixed with an appropriate concentration of the compound to be tested and the mixture was added to peptide coated dishes and incubated for 1 hr. at 37° C. Generally 100, 20, 5 and 1.25 μM concentrations of the compound were tested.
Following this incubation the plates were washed once with PBS and the attached cells were fixed with 3% paraformaldehyde in PBS and stained with 0.5% toluidine blue in 3.7% formaldehyde. The cells were stained overnight at room temperature and the optical density at 590 nm of toluidine blue stained cells was determined using a vertical pathway spectrophotometer to quantitate attachment (VMAX Kinetic Microplate Reader, Molecular Devices, Menlo Park, Calif.). This procedure is a modification of a previously published method (Cardarelli et al, J. Biol. Chem., 269:18668-18673 (1994) and Cardarelli et al, Proc. Natl. Acad. Sci. USA, 83:2647-2651 (1986)).

[2] = target: T2, α4β1 integrin (Jurkat T-cell adhesion to IL-1 stimulated endothelial cell monolayers) (Homo sapiens, UniProt P05556+P13612); assay: Jurkat-endothelial cell adhesion assay (Jurkat EC); format: cell-based; settings: Jurkat cells on IL-1 stimulated human umbilical vein endothelial cells; read-out: JK/EC (Jurkat EC Assay IC50 value range)
T2 construct: a T-cell line, Jurkat, known to express the α4β1 integrin; host or cells: Jurkat T-cell line
Description: Jurkat-endothelial Cell Adhesion Assay:
The following assay established the activity of the present compounds in inhibiting β1-mediated cell adhesion in a representative in vitro system. This assay measures the adhesive interactions of a T-cell line, Jurkat, known to express the α4β1 integrin, to endothelial monolayers in the presence of test compounds. The test compounds were added in increasing concentrations to T-cells and then the T-cell compound mixture was added to IL-1 stimulated endothelial cell monolayers. The plates were incubated, washed and the percentage of attached cells was quantitated.
Human umbilical vein endothelial cells were purchased from Clonetics (San Diego, Calif.) at passage number 2. The cells were grown on 0.5% porcine skin gelatin pre-coated flasks (Sigma, St. Louis Mo.) in EGM-UV media (Clonetics, San Diego, Calif.) supplemented with 10% fetal bovine serum. Cells are refed every 2-3 days reaching confluence by day 4 to 6. […] The endothelial cells are not used following passage 6.
The T-cell line Jurkat was obtained from American Type Tissue Culture Collection (Rockville, Md.) and the cells were cultured in RPMI containing 10% fetal calf serum. The cells were washed twice in Hank's Balanced Salt Solution (HBSS) and resuspended in Dulbecco's Minimal Eagle's Media (DMEM) containing 2.5 mg/ml Human Serum Albumin (HSA). Jurkat cells (1×10^6 cells/ml) were stained with 10 ng/ml BCECF-AM (Molecular Probes, Eugene, Oreg.)) in HBSS without phenol red. The cells were loaded with BCECF for 60 minutes in the dark at 370C, washed 2 times, and resuspended in DMEM-HSA solution.
Confluent endothelial monolayers, grown in 96-well tissue culture plates, were stimulated for 4 hr. at 37° C. with 0.1 ng/ml (˜50 U/ml) recombinant IL-1 (Amgen, Thousand Oaks, Calif.). Following this incubation, the monolayers were washed twice with HBSS and 0.1 ml of DMEM−HSA solution was added. Jurkat cells (5×10^5 cells) were combined with the appropriate concentration of the test compound and 0.1 ml of the Jurkat cell-compound mixture was added to the endothelial cell monolayers. Generally, 100, 20, 5 and 1.25 μM compound concentrations were tested. […] The plates were placed on ice for 5 minutes to allow for Jurkat cell settling and the plates were incubated at 37° C. for 20 minutes. Following this incubation, the monolayers were washed twice with PBS containing 1 mM calcium chloride and 1 mM magnesium chloride and the plates were read using a Millipore Cytofluor 2300 (Marlboro, Mass.). Fluorescence in each well was measured as Arbitrary Fluorescence Units and percent adhesion in the absence of compound was adjusted to 100% and the % adhesion in the presence of compound was calculated. Monolayers were also fixed in 3% paraformaldehyde and evaluated microscopically to verify the adhesion. This procedure is a modification of a previously published method (Cardarelli et al., J. Biol. Chem. 269:18668-18673 (1994)).

T2 sequence (P13612 34-1032): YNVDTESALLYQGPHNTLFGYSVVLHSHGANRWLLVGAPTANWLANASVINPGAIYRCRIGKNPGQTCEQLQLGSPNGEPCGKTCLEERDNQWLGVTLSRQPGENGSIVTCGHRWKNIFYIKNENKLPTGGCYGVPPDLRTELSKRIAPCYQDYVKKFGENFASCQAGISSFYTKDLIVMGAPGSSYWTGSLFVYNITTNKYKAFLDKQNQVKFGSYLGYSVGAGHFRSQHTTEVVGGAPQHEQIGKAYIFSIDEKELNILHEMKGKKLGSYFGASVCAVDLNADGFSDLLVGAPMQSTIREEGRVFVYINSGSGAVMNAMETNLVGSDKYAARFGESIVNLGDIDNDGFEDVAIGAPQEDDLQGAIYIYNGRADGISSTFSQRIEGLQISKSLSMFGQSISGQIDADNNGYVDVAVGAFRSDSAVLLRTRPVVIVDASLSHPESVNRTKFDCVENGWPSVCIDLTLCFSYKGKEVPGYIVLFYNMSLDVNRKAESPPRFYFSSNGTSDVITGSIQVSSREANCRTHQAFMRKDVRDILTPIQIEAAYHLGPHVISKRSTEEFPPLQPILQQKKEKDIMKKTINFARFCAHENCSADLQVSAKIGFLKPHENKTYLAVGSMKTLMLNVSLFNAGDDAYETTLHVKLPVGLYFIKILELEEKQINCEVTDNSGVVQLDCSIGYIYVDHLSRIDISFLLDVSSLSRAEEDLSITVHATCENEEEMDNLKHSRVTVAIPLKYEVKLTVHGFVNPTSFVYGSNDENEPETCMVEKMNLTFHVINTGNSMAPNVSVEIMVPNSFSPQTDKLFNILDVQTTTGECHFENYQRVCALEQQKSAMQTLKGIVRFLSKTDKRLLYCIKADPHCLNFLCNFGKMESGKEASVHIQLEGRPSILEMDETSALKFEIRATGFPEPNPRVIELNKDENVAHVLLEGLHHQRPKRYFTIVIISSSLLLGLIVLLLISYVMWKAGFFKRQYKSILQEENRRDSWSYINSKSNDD
T2 sequence (P05556 21-798): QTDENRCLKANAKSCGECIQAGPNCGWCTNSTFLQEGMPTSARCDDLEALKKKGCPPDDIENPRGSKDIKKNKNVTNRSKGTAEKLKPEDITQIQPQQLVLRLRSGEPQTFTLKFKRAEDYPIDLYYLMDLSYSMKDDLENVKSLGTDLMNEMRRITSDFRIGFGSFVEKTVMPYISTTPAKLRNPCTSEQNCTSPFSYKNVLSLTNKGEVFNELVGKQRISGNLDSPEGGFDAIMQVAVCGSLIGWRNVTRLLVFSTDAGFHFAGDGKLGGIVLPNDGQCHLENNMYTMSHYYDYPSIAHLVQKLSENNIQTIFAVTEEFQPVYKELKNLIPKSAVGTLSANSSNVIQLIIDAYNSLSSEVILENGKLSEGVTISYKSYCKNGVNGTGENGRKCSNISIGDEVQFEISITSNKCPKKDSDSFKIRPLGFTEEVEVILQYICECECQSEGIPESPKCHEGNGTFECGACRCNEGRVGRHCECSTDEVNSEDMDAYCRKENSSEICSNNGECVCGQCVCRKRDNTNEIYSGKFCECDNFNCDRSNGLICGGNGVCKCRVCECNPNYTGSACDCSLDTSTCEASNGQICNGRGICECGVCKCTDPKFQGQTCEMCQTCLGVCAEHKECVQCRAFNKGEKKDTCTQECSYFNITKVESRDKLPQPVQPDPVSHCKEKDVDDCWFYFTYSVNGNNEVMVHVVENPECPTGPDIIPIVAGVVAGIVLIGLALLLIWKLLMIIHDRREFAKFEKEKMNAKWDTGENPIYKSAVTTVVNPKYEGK
T1 sequence (P13612 34-1032): as the sequence (P13612 34-1032) above
T1 sequence (P05556 21-798): as the sequence (P05556 21-798) above

SMILES	IC50 [1]	IC50 [2]
COC(=O)[C@H](Cc1ccc(NC(=O)c2c(Cl)cccc2Cl)cc1)NC(=O)[C@H]1CSCN1C(=O)OC(C)(C)C (relative stereo) [Example 1, [S-(R*,R*)]-4-[[[1-[[4-[(2,6-Dichlorobenzoyl)amino]phenyl]methyl]-2-methoxy-2-oxoethyl]amino]carbonyl]-3-thiazolidinecarboxylic Acid 3-(1,1-Dimethylethyl)ester]	50 to 750 nM	≥ 1000 nM
CCOC(=O)N1CSC[C@@H]1C(=O)N[C@@H](Cc1ccc(NC(=O)c2c(Cl)cccc2Cl)cc1)C(=O)OC (relative stereo) [Example 4, [S-(R*,R*)]-4-[[[1-[[4-[(2,6-Dichlorobenzoyl)amino]phenyl]methyl]-2-methoxy-2-oxoethyl]amino]carbonyl]-3-thiazolidinecarboxylic Acid 3-Ethyl Ester]	≤ 50 nM	≤ 250 nM
COC(=O)CCC(=O)N1CSC[C@@H]1C(=O)N[C@@H](Cc1ccc(NC(=O)c2c(Cl)cccc2Cl)cc1)C(=O)OC (relative stereo) [Example 8, [S-(R*,R*)]-4-[[[1-[[4-[(2,6-Dichlorobenzoyl)amino]phenyl]methyl]-2-methoxy-2-oxoethyl]amino]carbonyl]-γ-oxo-3-thiazolidinebutanoic Acid 3-Methyl Ester]	50 to 750 nM	250 to 1000 nM
CC(C)(C)OC(=O)N1CSC[C@@H]1C(=O)N[C@@H](Cc1ccc(NC(=O)c2c(Cl)cccc2Cl)cc1)C(=O)O (relative stereo) [Example 10, [S-(R*,R*)]-4-[[[1-Carboxy-2-[4-[(2,6-dichlorobenzoyl)amino]phenyl]ethyl]amino]carbonyl]-3-thiazolidinecarboxylic Acid 3-(1,1-Dimethylethyl)ester]	≤ 50 nM	≤ 250 nM
CCOC(=O)N1CSC[C@@H]1C(=O)N[C@@H](Cc1ccc(NS(=O)(=O)c2cc(Cl)ccc2Cl)cc1)C(=O)O [Example 276, (4S)-4-[[[(1S)-1-Carboxy-2-[4-[[(2,5-dichlorophenyl)sulfonyl]amino]phenyl]ethyl]amino]carbonyl]-3-thiazolidinecarboxylic Acid 3-Ethyl Ester]	≥ 750 nM	
CCOC(=O)N1CSC[C@@H]1C(=O)N[C@@H](Cc1ccc(C(=O)Nc2c(Cl)cc(Cl)cc2Cl)cc1)C(=O)O [Example 278, (4S)-4-[[[(1S)-1-Carboxy-2-[4-[[(2,4,6-trichlorophenyl)amino]carbonyl]phenyl]ethyl]amino]carbonyl]-3-thiazolidinecarboxylic Acid 3-Ethyl Ester]	50 to 750 nM	
O=C(Nc1ccc(C[C@H](NC(=O)C2CS[C@H]3CNC(=O)N23)C(=O)O)cc1)c1c(Cl)cccc1Cl (stereo partly drawn) [Example 279, 4-[(2,6-Dichlorobenzoyl)amino]-N-[[(7aS)-hexahydro-5-oxoimidazo[5,1-b]thiazol-3-yl]carbonyl]-L-phenylalanine]	50 to 750 nM	
CCOC(=O)N1C(c2ccncc2)SC[C@@H]1C(=O)N[C@@H](Cc1ccc(NC(=O)c2c(Cl)cccc2Cl)cc1)C(=O)O (stereo partly drawn) [Example 283, (4S)-4-[[[(1S)-1-Carboxy-2-[4-[(2,6-dichlorobenzoyl)amino]phenyl]ethyl]amino]carbonyl]-2-(4-pyridinyl)-3-thiazolidinecarboxylic Acid 3-Ethyl Ester]	50 to 750 nM	
O=C(O)[C@H](Cc1ccc(OCc2c(Cl)cccc2Cl)cc1)NC(=O)[C@H]1CSCN1C(=O)OC1CCOC1 (stereo partly drawn) [Example 285, (4S)-4-[[[(1S)-1-Carboxy-2-[4-[(2,6-dichlorophenyl)methoxy]phenyl]ethyl]amino]carbonyl]-3-thiazolidinecarboxylic Acid 3-(3-Tetrahydrofuranyl)ester]	50 to 750 nM	
CN1CCN(CCOC(=O)N2CSC[C@@H]2C(=O)N[C@@H](Cc2ccc(OCc3c(Cl)cccc3Cl)cc2)C(N)=O)CC1 [Example 287, (4S)-4-[[[(1S)-2-Amino-1-[[4-[(2,6-dichlorophenyl)methoxy]phenyl]methyl]-2-oxoethyl]amino]carbonyl]-3-thiazolidinecarboxylic Acid 3-[2-(4-Methyl-1-piperazinyl)ethyl]ester]	50 to 750 nM	

The next lines start with the values.

IC50 [1]	IC50 [2]	SMILES
50 to 750 nM	250 to 1000 nM	COC(=O)[C@H](Cc1ccc(OCc2c(Cl)cccc2Cl)cc1)NC(=O)[C@H]1CSCN1C(=O)OCCN1CCCCC1 (relative stereo) [Example 5, [S-(R*,R*)]-4-[[[1-[4-[(2,6-Dichlorophenyl)methoxy]phenyl)methyl]-2-methoxy-2-oxoethyl]amino]carbonyl]-3-thiazolidinecarboxylic Acid 3-[2-(1-piperidinyl)ethyl]ester]
≤ 50 nM	≤ 250 nM	O=C(O)CCC(=O)N1CSC[C@@H]1C(=O)N[C@@H](Cc1ccc(NC(=O)c2c(Cl)cccc2Cl)cc1)C(=O)O (relative stereo) [Example 9, [S-(R*,R*)]-4-[[[1-Carboxy-2-[4-[(2,6-dichlorobenzoyl)amino]phenyl]ethyl]amino]carbonyl]-γ-oxo-3-thiazolidinebutanoic Acid]
≥ 750 nM		CCOC(=O)N1CSC[C@@H]1C(=O)N[C@@H](Cc1ccc(NC(=O)Nc2c(Cl)cccc2Cl)cc1)C(=O)O [Example 277, (4S)-4-[[[(1S)-1-Carboxy-2-[4-[[[(2,6-dichlorophenyl)amino]carbonyl]amino]phenyl]ethyl]amino]carbonyl]-3-thiazolidinecarboxylic Acid 3-Ethyl Ester]
50 to 750 nM		O=C(Nc1ccc(C[C@H](NC(=O)C2CS[C@@H]3CNC(=O)N23)C(=O)O)cc1)c1c(Cl)cccc1Cl (stereo partly drawn) [Example 280, 4-[(2,6-Dichlorobenzoyl)amino]-N-[[(7aR)-hexahydro-5-oxoimidazo[5,1-b]thiazol-3-yl]carbonyl]-L-phenylalanine]
50 to 750 nM		NC(=O)[C@H](Cc1ccc(OCc2c(Cl)cccc2Cl)cc1)NC(=O)[C@H]1CSCN1C(=O)OCCN1CCCC1 [Example 284]
50 to 750 nM		NC(=O)[C@H](Cc1ccc(OCc2c(Cl)cccc2Cl)cc1)NC(=O)[C@H]1CSCN1C(=O)OCCN1CCCCC1 [Example 286, (4S)-4-[[[(1S)-2-Amino-1-[[4-[(2,6-dichlorophenyl)methoxy]phenyl]methyl]-2-oxoethyl]amino]carbonyl]-3-thiazolidinecarboxylic Acid 3-[2-(1-Piperidinyl)ethyl]ester]
≥ 750 nM		NC(=O)[C@H](Cc1ccc(NC(=O)c2c(Cl)cccc2Cl)cc1)NC(=O)[C@H]1CSCN1C(=O)OCCN1CCOCC1 [Example 288, (4S)-4-[[[(1S)-2-Amino-1-[[4-[(2,6-dichlorobenzoyl)amino]phenyl]methyl]-2-oxoethyl]amino]carbonyl]-3-thiazolidinecarboxylic Acid 3-[2-(4-Morpholinyl)ethyl]ester]
